The values that follow are results of earlier work, collected in patent US20030059487A1, “Composition and method for the treatment of hypercholesterolemia and hyperlipidemia in mammals” (priority 2001, published 2003).

The conditions of this data set: background statement on Lipitor.

For the compound `CC(C)c1c(C(=O)Nc2ccccc2)c(-c2ccccc2)c(-c2ccc(F)cc2)n1CC[C@@H](O)C[C@@H](O)CC(=O)O` [atorvastatin], the “raises HDL cholesterol” value is given as 5 to 10%, the “reduces LDL” value is given as 40 to 60% and the reduces triglycerides is given as 20 to 40%.
